According to PubChem BioAssay (NCI):
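A five-concentration, 48-hour dose response in 96-well plates underlies each endpoint, interpolated linearly between surrounding concentrations. TGI: concentration producing complete growth inhibition.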

What was measured:
Test in all cases: NCI-60 cell line screen, 48 h
SF-295 CNS = system: SF-295 CNS
IGROV1 ovarian = system: IGROV1 ovarian
HCC-2998 colon = system: HCC-2998 colon
MDA-N = system: MDA-N
SR leukemia = system: SR leukemia
HCT-15 colon = system: HCT-15 colon
MCF7 breast = system: MCF7 breast
RXF 393 renal = system: RXF 393 renal
NCI/ADR-RES ovarian = system: NCI/ADR-RES ovarian
NCI-H23 lung = system: NCI-H23 lung
SK-OV-3 ovarian = system: SK-OV-3 ovarian
NCI-H226 lung = system: NCI-H226 lung
HT29 colon = system: HT29 colon
BT-549 breast = system: BT-549 breast
CCRF-CEM leukemia = system: CCRF-CEM leukemia
HCT-116 colon = system: HCT-116 colon
SF-268 CNS = system: SF-268 CNS
SNB-75 CNS = system: SNB-75 CNS
MOLT-4 leukemia = system: MOLT-4 leukemia
RPMI-8226 leukemia = system: RPMI-8226 leukemia
SNB-19 CNS = system: SNB-19 CNS
SW-620 colon = system: SW-620 colon
DU-145 prostate = system: DU-145 prostate
SN12C renal = system: SN12C renal
SK-MEL-2 melanoma = system: SK-MEL-2 melanoma
NCI-H460 lung = system: NCI-H460 lung
COLO 205 colon = system: COLO 205 colon
NCI-H522 lung = system: NCI-H522 lung
ACHN renal = system: ACHN renal
LOX IMVI melanoma = system: LOX IMVI melanoma
SK-MEL-5 melanoma = system: SK-MEL-5 melanoma
A498 renal = system: A498 renal
U251 CNS = system: U251 CNS
OVCAR-5 ovarian = system: OVCAR-5 ovarian
K-562 leukemia = system: K-562 leukemia
TK-10 renal = system: TK-10 renal
HOP-92 NSCLC = system: HOP-92 NSCLC
OVCAR-3 ovarian = system: OVCAR-3 ovarian
HS 578T breast = system: HS 578T breast
EKVX NSCLC = system: EKVX NSCLC
UACC-62 melanoma = system: UACC-62 melanoma
MDA-MB-435 = system: MDA-MB-435
T-47D breast = system: T-47D breast
SF-539 CNS = system: SF-539 CNS
UO-31 renal = system: UO-31 renal
A549 NSCLC = system: A549 NSCLC
CAKI-1 renal = system: CAKI-1 renal
OVCAR-8 ovarian = system: OVCAR-8 ovarian
KM12 colon = system: KM12 colon
HL-60(TB) leukemia = system: HL-60(TB) leukemia
M14 melanoma = system: M14 melanoma
UACC-257 melanoma = system: UACC-257 melanoma
MDA-MB-231 breast = system: MDA-MB-231 breast
PC-3 prostate = system: PC-3 prostate
786-0 renal = system: 786-0 renal
OVCAR-4 ovarian = system: OVCAR-4 ovarian

Measured: TGI

COc1cc(C2OC[C@@H]3C(=O)OC[C@H]23)cc(O)c1OC (stereo partly specified)
> 100 µM: all assays above
